Here are results for 28 compounds from patent publication US20260176267A1, “PREPARATION OF IMIDAZOPYRIDINE AND IMIDAZOPYRIDAZINE DERIVATIVES AS NOVEL DIACYLGLYCERIDE O-ACYLTRANSFERASE 2 INHIBITORS” (Merck Sharp & Dohme LLC, priority 2022, published 2026).

Molecules are shown by their SMILES.

As a reminder, the IC50 is the concentration needed to halve the response being measured. Low values mean greater potency, high ones weaker potency.

For the test, the target named is T1, human DGAT2 (hDGAT2) (Homo sapiens, UniProt Q96PD7).
T1 construct: made in house; host or cells: Sf-9 insect cells (baculovirus), membrane fraction
T1 sequence (Q96PD7 1-388): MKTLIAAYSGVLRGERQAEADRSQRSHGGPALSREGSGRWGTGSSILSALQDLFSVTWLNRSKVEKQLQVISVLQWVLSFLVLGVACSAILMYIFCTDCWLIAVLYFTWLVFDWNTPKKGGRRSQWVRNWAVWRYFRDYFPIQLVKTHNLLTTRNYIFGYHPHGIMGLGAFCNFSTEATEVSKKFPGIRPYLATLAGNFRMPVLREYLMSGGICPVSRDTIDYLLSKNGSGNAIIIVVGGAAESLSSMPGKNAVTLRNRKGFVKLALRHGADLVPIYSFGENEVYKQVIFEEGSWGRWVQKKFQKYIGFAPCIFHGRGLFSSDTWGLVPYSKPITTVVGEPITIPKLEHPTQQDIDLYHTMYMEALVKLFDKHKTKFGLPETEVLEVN
Put plainly: DGAT2 Enzymatic Activity Assay. It counts as biochemical. The conditions noted are these: membrane prep of Sf-9 cells expressing hDGAT2; 13C18-triolein product by LC/MS/MS; 25 μM diolein, 5 μM 13C oleoyl-CoA, rt. Summed up:
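At room temperature, DGAT2 activity in baculovirus-infected Sf-9 membrane preps (human enzyme, untagged) is measured as formation of ^13C18-triolein. Product is extracted and measured by positive-mode LC/MS/MS, with the ratio to spiked ^13C21-triolein giving inhibition and IC50.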

The compound `Cc1c(C(=O)NC2(C)CCS(=O)(=O)CC2)nc2ccc(Oc3ncc(F)cc3OCC(C)(F)F)cn12` [Example 94, 6-[[3-(2,2-difluoropropoxy)-5-fluoro-2-pyridyl]oxy]-3-methyl-N-(4-methyl-1,1-dioxo-thian-4-yl)imidazo[1,2-a]pyridine-2-carboxamide] came in with an IC50 of 12 nM.

In turn, `CCOc1cc(C(F)(F)F)cnc1Oc1ccc2nc(C(=O)NC3(C)CCS(=O)(=O)CC3)c(C)n2c1` [Example 95, 6-[[3-ethoxy-5-(trifluoromethyl)-2-pyridyl]oxy]-3-methyl-N-(4-methyl-1,1-dioxo-thian-4-yl)imidazo[1,2-a]pyridine-2-carboxamide] had an IC50 of 3 nM.

`Cc1cnc(Oc2ccc3nc(C(=O)NC4(C)CS(=O)(=O)C4)c(C)n3c2)c(OCC(F)(F)F)n1` [Example 96] had an IC50 of 5.7 nM.

Take `Cc1c(C(=O)NC2CC(C(F)(F)F)C2)nc2ccc(Oc3ncc(F)cc3OCC(F)F)cn12` (stereo not shown) [Example 97, 6-[[3-(2,2-difluoroethoxy)-5-fluoro-2-pyridyl]oxy]-3-methyl-N-[3-(trifluoromethyl)cyclobutyl] imidazo[1,2-a]pyridine-2-carboxamide]: the IC50 stood at 4 nM.

`Cc1c(C(=O)NC23CC(F)(C2)C3)nc2ccc(Oc3ncc(F)cc3OCC(F)F)cn12` [Example 99]: the IC50 stood at 56 nM.

Compound `Cc1c(C(=O)NC2(C)CCS(=O)(=O)C(C)(C)C2)nc2ccc(Oc3ncc(Cl)cc3OCC(F)F)cn12` (stereo not shown) [Example 100, 6-[[5-chloro-3-(2,2-difluoroethoxy)-2-pyridyl]oxy]-3-methyl-N-(2,2,4-trimethyl-1,1-dioxo-thian-4-yl)imidazo[1,2-a]pyridine-2-carboxamide] registered an IC50 of 114 nM.

As for `Cc1c(C(=O)N[C@]2(C)CCS(=O)(=O)C2)nc2ccc(Oc3ncc(F)cc3OCC(F)(F)F)cn12` [Example 101], 88 nM corresponded to half-maximal inhibition (IC50).

`Cc1c(C(=O)NC2(C)CCN(C(=O)C(F)(F)F)CC2)nc2ccc(Oc3ncc(F)cc3OCC(F)(F)F)cn12` [Example 102, 6-[[5-fluoro-3-(2,2,2-trifluoroethoxy)-2-pyridyl]oxy]-3-methyl-N-[4-methyl-1-(2,2,2-trifluoroacetyl)-4-piperidyl]imidazo[1,2-a]pyridine-2-carboxamide] came in with an IC50 of 128 nM.

Compound `Cc1c(C(=O)NC2(C)CS(=O)(=O)C2)nc2ccc(Oc3ncc(C(F)(F)F)nc3OCC(F)(F)F)cn12` [Example 103, 3-methyl-N-(3-methyl-1,1-dioxo-thietan-3-yl)-6-[3-(2,2,2-trifluoroethoxy)-5-(trifluoromethyl)pyrazin-2-yl]oxy-imidazo[1,2-a]pyridine-2-carboxamide] displayed an IC50 of 71 nM.

In the case of `Cc1c(C(=O)NC2(C)CCS(=O)(=O)CC2)nc2ccc(Oc3ncc(F)cc3OCC(F)(F)C(F)F)cn12` [Example 104, 6-[[5-fluoro-3-(2,2,3,3-tetrafluoropropoxy)-2-pyridyl]oxy]-3-methyl-N-(4-methyl-1,1-dioxo-thian-4-yl)imidazo[1,2-a]pyridine-2-carboxamide], the IC50 came out at 342 nM.

`Cc1c(C(=O)NC2CCS(=O)(=O)C(C)(C)C2)nc2ccc(Oc3ncc(F)cc3OCC(F)(F)F)cn12` (stereo not shown) [Example 105, N-(2,2-dimethyl-1,1-dioxo-thian-4-yl)-6-[[5-fluoro-3-(2,2,2-trifluoroethoxy)-2-pyridyl]oxy]-3-methyl-imidazo[1,2-a]pyridine-2-carboxamide] came in with an IC50 of 193 nM.

In turn, `CCC1(NC(=O)c2nc3ccc(Oc4nccnc4OCC(F)(F)F)cn3c2C)CCS(=O)(=O)CC1` [Example 106, N-(4-ethyl-1,1-dioxo-thian-4-yl)-3-methyl-6-[3-(2,2,2-trifluoroethoxy)pyrazin-2-yl]oxy-imidazo[1,2-a]pyridine-2-carboxamide] returned an IC50 of 638 nM.

On to `Cc1ccnc(Oc2ccc3nc(C(=O)NC4(C)CCS(=O)(=O)CC4)c(C)n3c2)c1OCC(F)(F)F` [Example 107, 3-methyl-N-(4-methyl-1,1-dioxo-thian-4-yl)-6-[[4-methyl-3-(2,2,2-trifluoroethoxy)-2-pyridyl]oxy]imidazo[1,2-a]pyridine-2-carboxamide], for which the IC50 was 634 nM.

In the case of `Cc1cnc(OCC(F)(F)F)c(Oc2ccc3nc(C(=O)NC4(C)CCS(=O)(=O)CC4)c(C)n3c2)n1` [Example 108, 3-methyl-N-(4-methyl-1,1-dioxo-thian-4-yl)-6-[6-methyl-3-(2,2,2-trifluoroethoxy)pyrazin-2-yl]oxy-imidazo[1,2-a]pyridine-2-carboxamide], inhibition was half-maximal at 131 nM (IC50).

For the compound `Cc1c(C(=O)NC2(C)CCS(=O)(=O)CC2)nc2ccc(Oc3nccc(Cl)c3OCC(F)(F)F)cn12` [Example 109, 6-[[4-chloro-3-(2,2,2-trifluoroethoxy)-2-pyridyl]oxy]-3-methyl-N-(4-methyl-1,1-dioxo-thian-4-yl)imidazo[1,2-a]pyridine-2-carboxamide], the IC50 worked out at 224 nM.

In turn, `Cc1c(C(=O)NCC2(C)CS(=O)(=O)C2)nc2ccc(Oc3ncc(F)cc3OCC(F)(F)F)cn12` [Example 110, 6-[[5-fluoro-3-(2,2,2-trifluoroethoxy)-2-pyridyl]oxy]-3-methyl-N-[(3-methyl-1,1-dioxo-thietan-3-yl)methyl]imidazo[1,2-a]pyridine-2-carboxamide] registered an IC50 of 957 nM.

For `Cc1ccc(OCC(F)(F)F)c(Oc2ccc3nc(C(=O)NC4(C)CCS(=O)(=O)CC4)c(C)n3c2)n1` [Example 111], the IC50 stood at 298 nM.

In turn, `Cc1c(C(=O)NC2(CC(F)(F)F)CCCOC2)nc2ccc(Oc3ncccc3OCC(F)(F)F)cn12` (stereo not shown) [Example 112, 3-methyl-6-[[3-(2,2,2-trifluoroethoxy)-2-pyridyl]oxy]-N-[3-(2,2,2-trifluoroethyl)tetrahydropyran-3-yl]imidazo[1,2-a]pyridine-2-carboxamide] registered an IC50 of 3380 nM.

Turning to `Cc1c(C(=O)N[C@H]2CCC(=O)NC2)nc2ccc(Oc3ncccc3OCC(F)(F)F)cn12` [Example 113, 3-methyl-N-[(3S)-6-oxo-3-piperidyl]-6-[[3-(2,2,2-trifluoroethoxy)-2-pyridyl]oxy]imidazo[1,2-a]pyridine-2-carboxamide], the IC50 was greater than 9990 nM.

As for `CCOc1cccnc1Oc1ccc2nc(C(=O)NC3(C)CS(=O)(=O)C3)c(CC)n2c1` [Example 114, 6-[(3-ethoxy-2-pyridyl)oxy]-3-ethyl-N-(3-methyl-1,1-dioxo-thietan-3-yl)imidazo[1,2-a]pyridine-2-carboxamide], the IC50 is 64 nM.

With `CCc1c(C(=O)NC2(C)CCS(=O)(=O)CC2)nc2ccc(Oc3ncccc3OCC(F)(F)F)cn12` [Example 115, 3-ethyl-N-(4-methyl-1,1-dioxo-thian-4-yl)-6-[[3-(2,2,2-trifluoroethoxy)-2-pyridyl]oxy]imidazo[1,2-a]pyridine-2-carboxamide], the midpoint of inhibition, the IC50, lay at 44 nM.

For the compound `CC(C)c1c(C(=O)NC2(C)CCS(=O)(=O)CC2)nc2ccc(Oc3ncccc3OCC(F)(F)F)cn12` [Example 116, 3-isopropyl-N-(4-methyl-1,1-dioxo-thian-4-yl)-6-[[3-(2,2,2-trifluoroethoxy)-2-pyridyl]oxy]imidazo[1,2-a]pyridine-2-carboxamide], the IC50 came out at 413 nM.

Compound `Cc1c(C(=O)NC2(C)CCS(=O)(=O)CC2)nc2c(F)cc(Oc3ncccc3OCC(F)(F)F)cn12` [Example 117, 8-fluoro-3-methyl-N-(4-methyl-1,1-dioxo-thian-4-yl)-6-[[3-(2,2,2-trifluoroethoxy)-2-pyridyl]oxy]imidazo[1,2-a]pyridine-2-carboxamide] had an IC50 of 1.2 nM.

Take `Cc1c(C(=O)NC2(C)CCS(=O)(=O)CC2)nc2cc(F)c(Oc3ncc(F)cc3OCC(F)(F)F)cn12` [Example 118, 7-fluoro-6-[[5-fluoro-3-(2,2,2-trifluoroethoxy)-2-pyridyl]oxy]-3-methyl-N-(4-methyl-1,1-dioxo-thian-4-yl)imidazo[1,2-a]pyridine-2-carboxamide]: half-maximal inhibition (IC50) required 1.4 nM.

Regarding `Cc1c(C(=O)NC2(C)CCS(=O)(=O)CC2)nc2cc(F)c(Oc3ncc(Cl)cc3OCC(F)(F)F)cn12` [Example 119, 6-[[5-chloro-3-(2,2,2-trifluoroethoxy)-2-pyridyl]oxy]-7-fluoro-3-methyl-N-(4-methyl-1,1-dioxo-thian-4-yl)imidazo[1,2-a]pyridine-2-carboxamide], inhibition was half-maximal at 1 nM (IC50).

In the case of `Cc1c(C(=O)NC2(C)CS(=O)(=O)C2)nc2cc(F)c(Oc3ncc(Cl)cc3OCC(F)(F)F)cn12` [Example 120, 6-[[5-chloro-3-(2,2,2-trifluoroethoxy)-2-pyridyl]oxy]-7-fluoro-3-methyl-N-(3-methyl-1,1-dioxo-thietan-3-yl)imidazo[1,2-a]pyridine-2-carboxamide], the IC50 was 4.3 nM.

`Cc1c(C(=O)NC2(C)CS(=O)(=O)C2)nc2cc(F)c(Oc3ncc(F)cc3OCC(F)(F)F)cn12` [Example 121, 7-fluoro-6-[[5-fluoro-3-(2,2,2-trifluoroethoxy)-2-pyridyl]oxy]-3-methyl-N-(3-methyl-1,1-dioxo-thietan-3-yl)imidazo[1,2-a]pyridine-2-carboxamide] displayed an IC50 of 41 nM.

In turn, `Cc1c(C(=O)NC2(C)CCS(=O)(=O)CC2)nc2cc(F)c(Oc3nccnc3OCC(F)(F)F)cn12` [Example 122, 7-fluoro-3-methyl-N-(4-methyl-1,1-dioxo-thian-4-yl)-6-[3-(2,2,2-trifluoroethoxy)pyrazin-2-yl]oxy-imidazo[1,2-a]pyridine-2-carboxamide] returned an IC50 of 7.7 nM.
